This note sets out measurements from patent US11491173B2, “Pharmaceutical composition and application thereof” (priority 2018, dated 2022).

Test [1] relates to H9c2 cardiomyocyte damage induced by hypoxia. As to the kind of experiment: Hypoxia-induced H9c2 cardiomyocyte damage, mitochondrial function (MitoTracker Deep Red FM, high-content imaging). It is filed as cell-based. Particulars: for mitochondrial function (Table 9): individual replicates N1-N3. As for the experimental part: (§1) 2. Experimental methods: QSYQ-1 and QSYQ-2, and each active ingredient group were ultrasonically dissolved and prepared into a 0.4 mg/mL of stock solution with DMSO. When in vitro activity evaluation was performed, the above groups were diluted with the same amount of experimental medium respectively.
(§2) The cells were collected at the logarithmic growth phase and added to a 96-well culture plate with a black transparent bottom at a concentration of 5000 cells per well and a volume of 100 μL per well. The cells were incubated in an incubator with 5% CO2 at 37° C. for 24 hours. Subsequently, the tested groups were added to the experimental groups respectively, incubated for 24 hours, and then placed in a hypoxic chamber passing a mixed gas composed of 95% nitrogen and 5% CO2 at a flow rate of 15 L/min for 10 mins, and incubated for another 8 hours after inducing hypoxia damage at 37° C. The model group was only incubated for 8 hours under hypoxia, and the blank control group was incubated normally.
(§3) The labeling operation of cell fluorescent probe was as follows: the mother liquor of fluorescent probe Hoechst 33342 was diluted 1000-fold into a DMEM basic medium; then the mother liquor of MitoTracker Deep Red FM was diluted 10000-fold into a culture medium containing Hoechst 33342 to serve as a “cocktail” stain. The medium in the culture plate was discarded and replaced with the “cocktail” stain, 50 μL per well, and incubated in an incubator away from light for 30 mins. The plate was taken out away from light, and washed with DMEM (high glucose) for 3 times and 5 minutes each time. Live cell imaging was performed subsequently.
(§4) The operation of live cell imaging with HCS was as follows: an excitation light of 360-400 and an emission light of 410-480 were selected for the imaging of Hoechst 33342-labeled nuclei; an excitation light of 620-640 and an emission light of 650-760 were selected for the imaging of MitoTracker Deep Red FM-labeled mitochondria. Harmony 3.0 software was applied to analyze the HCS imaging and read the fluorescence intensities of the nucleus/cytoplasm. The HCS screening system combined the automatic fluorescence microscopy imaging functions, and can perform a high-throughput multi-index analysis. Columbus high-efficiency image and data management and analysis system were applied to perform a secondary analysis and management of the image and data, and draw the dosage-dependent curve relationship.

Test [2] has the same test system. Put plainly: Hypoxia-induced H9c2 cardiomyocyte damage, nucleus number (Hoechst 33342, high-content imaging). As to conditions: for nucleus number (Table 7): individual replicates N1-N3, 0.4 mg/mL DMSO stock diluted with medium. It is filed as cell-based. The protocol: as §1, §2, §3, §4
Where [3] appears, read: mean of N1-N3, 24 h pre-incubation, then hypoxia 8 h.
[4] abbreviates: 24 h pre-incubation, then hypoxia 8 h.

Each structure is given as a SMILES string. “And” between values parts separate entries of the source, which are not always exact repeats. Equal entries are not always repeated.

As to `COc1ccc(-c2coc3cc(O)ccc3c2=O)cc1O` [Calycosin, calycosin], the “mitochondrial function, Mean (Table 9)” value in test [1] (setting [3]) is reported as 905.6. Further, the “nucleus number, Mean (Table 7)” value in test [2] (setting [3]) was determined as 386.0.
As to `COc1ccc(-c2coc3cc(O[C@@H]4O[C@H](CO)[C@@H](O)[C@H](O)[C@H]4O)ccc3c2=O)cc1O` [Calycosin-7-glucoside, calycosin-7-glucoside], the “mitochondrial function (Table 9)” value in test [1] (setting [4]) is 967.77 and 861.05 and 877.99. Also, in test [1] (setting [3]), the “mitochondrial function, Mean (Table 9)” value is 902.3. For the same compound, the “nucleus number (Table 7)” value in test [2] (setting [4]) is 312 and 366 and 323. For the same compound, in test [2] (setting [3]), the “nucleus number, Mean (Table 7)” value is 333.7.
On to `C[C@H]1COC2=C1C(=O)C(=O)c1c2ccc2c1CCCC2(C)C` [Cryptotanshinone, cryptotanshinone], for which the “mitochondrial function, Mean (Table 9)” value in test [1] (setting [3]) was 853.8. In test [2] (setting [3]), the “nucleus number, Mean (Table 7)” value was 349.0.
Consider `O=C(O)[C@H](O)Cc1ccc(O)c(O)c1` [Danshensu], for which the “mitochondrial function (Table 9)” value in test [1] (setting [4]) was 909.24 and 845.81 and 882.04. In addition, the “mitochondrial function, Mean (Table 9)” value in test [1] (setting [3]) worked out at 879.0. Further, in test [2] (setting [4]), the “nucleus number (Table 7)” value is 326 and 371 and 342. Moreover, the “nucleus number, Mean (Table 7)” value in test [2] (setting [3]) turned out to be 346.3.
In the case of `Cc1cccc2c3c(ccc12)C1=C(C(=O)C3=O)[C@@H](C)CO1` [Dihydrotanshinone I, dihydrotanshinone I], in test [1] (setting [4]), the “mitochondrial function (Table 9)” value was 930.1 and 918.77 and 813.04. Further, in test [1] (setting [3]), the “mitochondrial function, Mean (Table 9)” value is listed as 887.3. Moreover, the “nucleus number (Table 7)” value in test [2] (setting [4]) was 303 and 373 and 313. The “nucleus number, Mean (Table 7)” value in test [2] (setting [3]) is 339.7.
Turning to `COc1ccc(-c2coc3cc(O)ccc3c2=O)cc1` [Formononetin, formononetin], in test [1] (setting [3]), the “mitochondrial function, Mean (Table 9)” value was determined as 863.7. In test [2] (setting [3]), the “nucleus number, Mean (Table 7)” value is reported as 376.3.
Turning to `CC(C)=CCC[C@](C)(O[C@@H]1O[C@H](CO[C@@H]2O[C@H](CO)[C@@H](O)[C@H](O)[C@H]2O)[C@@H](O)[C@H](O)[C@H]1O)[C@H]1CC[C@]2(C)[C@@H]1[C@H](O)C[C@@H]1[C@@]3(C)CC[C@H](O[C@@H]4O[C@H](CO)[C@@H](O)[C@H](O)[C@H]4O[C@@H]4O[C@H](CO)[C@@H](O)[C@H](O)[C@H]4O)C(C)(C)[C@@H]3CC[C@]12C` [Ginsenoside Rb1, ginsenoside Rb1], the “mitochondrial function (Table 9)” value in test [1] (setting [4]) is 778.78 and 843.1 and 822.04. Also, in test [1] (setting [3]), the “mitochondrial function, Mean (Table 9)” value came out at 814.6. The “nucleus number (Table 7)” value in test [2] (setting [4]) was 406 and 420 and 386. Moreover, the “nucleus number, Mean (Table 7)” value in test [2] (setting [3]) came to 404.0.
In the case of `CC(C)=CCC[C@](C)(O[C@@H]1O[C@H](CO)[C@@H](O)[C@H](O)[C@H]1O)[C@H]1CC[C@]2(C)[C@@H]1[C@H](O)C[C@@H]1[C@@]3(C)CC[C@H](O[C@@H]4O[C@H](CO)[C@@H](O)[C@H](O)[C@H]4O[C@@H]4O[C@H](CO)[C@@H](O)[C@H](O)[C@H]4O)C(C)(C)[C@@H]3CC[C@]12C` [Ginsenoside Rd, ginsenoside Rd], in test [1] (8 h), the “mitochondrial function, Mean (Table 9)” value was 820.9. The “nucleus number, Mean (Table 7)” value in test [2] (8 h) amounted to 408.0.
Regarding `CC(C)=CCC[C@](C)(O[C@@H]1O[C@H](CO)[C@@H](O)[C@H](O)[C@H]1O)[C@H]1CC[C@]2(C)[C@@H]1[C@H](O)C[C@@H]1[C@@]3(C)CC[C@H](O)C(C)(C)[C@@H]3[C@@H](O[C@@H]3O[C@H](CO)[C@@H](O)[C@H](O)[C@H]3O)C[C@]12C` [Ginsenoside Rg1, ginsenoside Rg1], in test [1] (setting [4]), the “mitochondrial function (Table 9)” value is 843.46 and 918.73 and 954.27. The “mitochondrial function, Mean (Table 9)” value in test [1] (setting [3]) is reported as 905.5. Also, the “nucleus number (Table 7)” value in test [2] (setting [4]) is 264 and 310 and 350. Further, in test [2] (setting [3]), the “nucleus number, Mean (Table 7)” value is recorded as 308.0.
In the case of `O=C(/C=C/c1ccc(O)c2c1C=Cc1cc(O)c(O)cc1O2)O[C@H](Cc1ccc(O)c(O)c1)C(=O)O` [Isosalvianolic acid C, isosalvianolic acid C], in test [1] (setting [4]), the “mitochondrial function (Table 9)” value was 766.96 and 812.08 and 738.89. In addition, the “mitochondrial function, Mean (Table 9)” value in test [1] (setting [3]) turned out to be 772.6. The “nucleus number (Table 7)” value in test [2] (setting [4]) is 293 (2×) and 326. In test [2] (setting [3]), the “nucleus number, Mean (Table 7)” value amounted to 304.0.
Consider `O=C(/C=C/c1ccc(O)c2c1[C@H](C(=O)O)[C@@H](c1ccc(O)c(O)c1)O2)O[C@H](Cc1ccc(O)c(O)c1)C(=O)O` [Lithospermic acid, lithospermic acid], for which, in test [1] (setting [3]), the “mitochondrial function, Mean (Table 9)” value is given as 811.6. Moreover, the “nucleus number, Mean (Table 7)” value in test [2] (setting [3]) is reported as 356.0.
With `CC(C)=CCC[C@](C)(O[C@@H]1O[C@H](CO)[C@@H](O)[C@H](O)[C@H]1O)[C@H]1CC[C@]2(C)[C@@H]1[C@H](O)C[C@@H]1[C@@]3(C)CC[C@H](O)C(C)(C)[C@@H]3[C@@H](O[C@@H]3O[C@H](CO)[C@@H](O)[C@H](O)[C@H]3O[C@@H]3OC[C@@H](O)[C@H](O)[C@H]3O)C[C@]12C` [Notoginsenoside R1, notoginsenoside R1], in test [1] (24 h pre-incubation, then hypoxia 8 h, listed as Notoainsenoside R1), the “mitochondrial function (Table 9)” value was 841.9 and 950.39 and 985.33. The “mitochondrial function, Mean (Table 9)” value in test [1] (setting [3]) was determined as 925.9. For the same compound, in test [2] (setting [4]), the “nucleus number (Table 7)” value was 360 and 383 and 355. For the same compound, the “nucleus number, Mean (Table 7)” value in test [2] (setting [3]) was 366.0.
On to `COc1ccc(-c2coc3cc(O[C@@H]4O[C@H](CO)[C@@H](O)[C@H](O)[C@H]4O)ccc3c2=O)cc1` [Ononin, ononin], for which the “mitochondrial function, Mean (Table 9)” value in test [1] (setting [3]) was 695.0. For the same compound, in test [2] (setting [3]), the “nucleus number, Mean (Table 7)” value stood at 366.0.
`O=Cc1ccc(O)c(O)c1` [Protocatechuic aldehyde, protocatechuic aldehyde]: in test [1] (setting [4]), the “mitochondrial function (Table 9)” value is 946.04 and 881.05 and 901.89. For the same compound, the “mitochondrial function, Mean (Table 9)” value in test [1] (setting [3]) was found to be 909.7. Further, the “nucleus number (Table 7)” value in test [2] (setting [4]) was 361 and 345 and 303. The “nucleus number, Mean (Table 7)” value in test [2] (setting [3]) is 336.3.
Turning to `O=C(/C=C/c1ccc(O)c(O)c1)O[C@H](Cc1ccc(O)c(O)c1)C(=O)O` [Rosmarinic acid, rosmarinic acid], the “mitochondrial function, Mean (Table 9)” value in test [1] (setting [3]) worked out at 790.6. For the same compound, the “nucleus number, Mean (Table 7)” value in test [2] (setting [3]) is 345.3.
In the case of `O=C(/C=C/c1ccc(O)c(O)c1/C=C/c1ccc(O)c(O)c1)O[C@H](Cc1ccc(O)c(O)c1)C(=O)O` [Salvianolic acid A, salvianolic acid A], in test [1] (24 h pre-incubation, then hypoxia 8 h, listed as Saivianolic acid A), the “mitochondrial function (Table 9)” value was 914.19 and 859.26 and 941.93. Also, in test [1] (setting [3]), the “mitochondrial function, Mean (Table 9)” value is given as 905.1. Moreover, the “nucleus number (Table 7)” value in test [2] (setting [4]) was 264 and 287 and 254. Further, the “nucleus number, Mean (Table 7)” value in test [2] (setting [3]) is 268.3.
In the case of `O=C(/C=C/c1ccc(O)c2c1[C@H](C(=O)O[C@H](Cc1ccc(O)c(O)c1)C(=O)O)[C@@H](c1ccc(O)c(O)c1)O2)O[C@H](Cc1ccc(O)c(O)c1)C(=O)O` [Salvianolic acid B, salvianolic acid B], in test [1] (setting [4]), the “mitochondrial function (Table 9)” value was 801.62 and 853.39 and 910.53. In addition, the “mitochondrial function, Mean (Table 9)” value in test [1] (setting [3]) is reported as 855.2. The “nucleus number (Table 7)” value in test [2] (setting [4]) is 385 and 364 and 435. Further, in test [2] (setting [3]), the “nucleus number, Mean (Table 7)” value came to 394.7.
As for `O=C(O)Cc1c(/C=C/C(=O)O[C@H](Cc2ccc(O)c(O)c2)C(=O)O)ccc(O)c1O` [Salvianolic acid D, salvianolic acid D], the “mitochondrial function (Table 9)” value in test [1] (setting [4]) is 946.71 and 900.04 and 920.17. Also, the “mitochondrial function, Mean (Table 9)” value in test [1] (setting [3]) was determined as 922.3. For the same compound, in test [2] (setting [4]), the “nucleus number (Table 7)” value is 306 and 236 and 273. The “nucleus number, Mean (Table 7)” value in test [2] (setting [3]) was found to be 271.7.
Regarding `O=C(O)C1Cc2ccc(O)c3c2C(=Cc2ccc(O)c(O)c2O3)C1=O` (centres unmarked) [Salvianolic acid G, salvianolic acid G], the “mitochondrial function (Table 9)” value in test [1] (24 h pre-incubation, then hypoxia 8 h, listed as Saivianolic acid G) was 870.9 and 831.06 and 901.01. The “mitochondrial function, Mean (Table 9)” value in test [1] (setting [3]) is recorded as 867.7. The “nucleus number (Table 7)” value in test [2] (setting [4]) is 380 and 328 and 391. Also, the “nucleus number, Mean (Table 7)” value in test [2] (setting [3]) stood at 366.3.
